Series [1] in a line: Critical wavelength method, evaluation as UVA protector. Format: physicochemical. An excerpt: The term “critical wavelength method” denotes a method of measuring of the breadth of UVA protection using the “critical wavelength”. To obtain this value, the absorbance of the molecule or material is integrated (summed) from 290 nm across the UV wavelengths until the sum reaches 90% of the total absorbance of the sunscreen in the UV region of 290-400 nm. The wavelength where the summed absorbance reaches 90% of the total absorbance is the “critical wavelength”. The critical wavelength can be defined by the following equation: […]
The critical wavelength method was then employed for evaluation of the molecule CDBA as a UVA protector. The results are shown in FIGS. 5A-5C, which are graphs depicting the data using the Critical Wavelength method to evaluate CDBA as a UVA protector. […] Its 90% value was 124.030. […] Given this, the λc was determined to be between 389-390 nm. Furthermore, the results can be summarized as follows: • After 6 minutes of irradiation of UVA radiation (356 nm or 357 nm), 100% of the composition was isomeric. • After 8 minutes of irradiation of visible light radiation (442 nm or 443 nm), 99% of the molecules were isomeric. • After 3 hours of daylight irradiation, more than 90% of the molecules were isomeric, trans.

The nature of series [2]: Molar absorptivity in CHCl3 (UV-Vis spectrophotometer). Format: physicochemical. The note with it: for κ (molar absorptivity): CHCl3; for λmax (λCHCl3): in CHCl3.
Procedure: The tests included observing the UVA-absorbing condition before and after light exposure and noting the molar absorption coefficient. […] The ultraviolet spectra of CHCl3 were measured using an UV-Vis spectrophotometer (U3010, Hitachi, Japan). All experiments were carried out at room temperature unless otherwise stated.
Series [3] can be described thus: Photoisomerization tests under UV, visible and natural light. Format: physicochemical. The note with it: for time of UV light irradiation to convert trans into cis form / time of visible light irradiation to reach the photostationary state of trans form: 400 W Hg lamp; for time of UV light irradiation to convert trans into cis form: 275-400 nm filter, room temperature; for time of visible light irradiation to reach the photostationary state of trans form: filter >400 nm; for time of natural light irradiation to reach the photostationary state of trans form: fluorescent lamps, about 500 lx. How it is done:
Photoisomerization tests were carried out on compounds PyB (Formula XIV) and iQB (Formula XV), which were synthesized and characterized by MS, IR, ^1H NMR spectra.
The tests included observing the UVA-absorbing condition before and after light exposure and noting the molar absorption coefficient. The test also included determining the photo isomerization conditions under illumination of UVA, visible light and daylight. The compounds were irradiated with a 400 W high-pressure Hg lamp (LCE-9, Zhengzhou, China). A bandpass filter (λT=275˜400 nm) was used for UV light and a bandpass filter (λT>400 nm) was used for visible light. The light distance was 20 cm. For natural light irradiation, samples were irradiated with fluorescent lamps (21 W×2, luminous intensity about 500 lx), and the light distance was 120 cm. The ultraviolet spectra of CHCl3 were measured using an UV-Vis spectrophotometer (U3010, Hitachi, Japan). All experiments were carried out at room temperature unless otherwise stated.
It was estimated from the spectral change that trans-PyB and iQB were converted into the cis-PyB or iQB after 6 or 8 min (respectively) of UV light irradiation (FIGS. 3A and 4A); it took 8 min of visible light irradiation to reach the photostationary state of trans-PyB or iQB (FIGS. 3B and 4B) and 3.0 h of natural light irradiation to reach the photostationary state of trans-PyB or iQB (FIGS. 3C and 4C).

Procedure for back of the rats: Phototoxicity of various azo-compounds was examined.
The UV source for the in vivo testing involved a 400 W high-pressure mercury lamp (LCE-9, Zhengzhou, China) with a filter transmitting the wavelength between 320-380 nm. Four test sites (4 cm^2) were selected on the back of the rats. The sites were located between the breast and scapulae and lateral to the midline. The test product was applied at the amount of 20 ul/cm^2 (0.06 mg CDBA) and spread uniformly over one test site using a finger cot. The product was allowed to dry for 15 min before starting the UV exposure. On each test site, four squares (1 cm×1 cm) were defined, on an unprotected skin area of the rat dorsal and on a sunscreen-protected area. The skin was kept at a distance of 15 cm from the light source and the time of illumination was 5 hours on the test sites.

As to `CCN(CC)CCCCOc1ccc(N=Nc2ccc(C(=O)OC3CCC4(C)C(=CCC5C4CCC4(C)C(C(C)CCCC(C)C)CCC54)C3)cc2)cc1` (centres unmarked) [CDBA, 4-cholesterocarbonyl-4′-(N,N-diethylaminebutyloxyl)azobenzene], the integrated area in series [1] (290-389 (FIG. 5C)) was 123.707; in series [1] (290-390 (FIG. 5B)), 125.025; in series [1] (290 nm to 400 nm (FIG. 5A)), 137.811. The “90% value of integrated area” value in series [1] (290 nm to 400 nm (FIG. 5A)) turned out to be 124.030. Besides, in series [1] (wavelength where summed absorbance from 290 nm reaches 90% of the 290-400 nm total), the “critical wavelength λc” value is 389-390 nm. For the same compound, the entries for the “κ (molar absorptivity)” value in series [2] (at 442 nm) and in series [2] (at λmax) were 3174 L/mol/cm and 24726 L/mol/cm, respectively. Also, the “A (absorbance)” value in series [2] (at 442 nm, CHCl3, C 0.01 mg/mL) was found to be 0.043; in series [2] (at λmax, CHCl3, C 0.01 mg/mL), 0.335. Moreover, in series [2], the “λmax (λCHCl3)” value is 357 (λmax) nm. Besides, the “protection of skin from UV irradiation” value with back of the rats (rat back, in liposome, 20 ul/cm2 (0.06 mg CDBA), 320-380 nm for 5 h, seen three days after) is listed as “effectively protected skin from UV irradiation”. Further, in the series on back of the rats (rat, in vivo), the “adverse effect on skin” value is “no adverse effect including allergy”.
Consider `CC(C)CCCC(C)C1CCC2C3CC=C4CC(OC(=O)c5ccc(N=Nc6ccc(OCCCC[n+]7ccccc7)cc6)cc5)CCC4(C)C3CCC12C.[Br-]` (centres unmarked) [PyB], for which the “κ (molar absorptivity)” value in series [2] (at 442 nm) was found to be 2227 L/mol/cm. In addition, the “A (absorbance)” value in series [2] (at 442 nm, CHCl3, C 0.03 mg/mL) is recorded as 0.081. The “κ (molar absorptivity)” value in series [2] (at λmax) was 14464 L/mol/cm. Further, in series [2] (at λmax, CHCl3, C 0.03 mg/mL), the “A (absorbance)” value worked out at 0.526. In series [2], the “λmax (λCHCl3)” value is listed as 356 (λmax) nm. Besides, in series [3], the “time of UV light irradiation to convert trans into cis form” value is 6 min, the “time of visible light irradiation to reach the photostationary state of trans form” value is given as 8 min and the “time of natural light irradiation to reach the photostationary state of trans form” value is 3.0 h.
As to `COc1ccc(C(=O)CC(=O)c2ccc(C(C)(C)C)cc2)cc1` [avobenzone, reference compound], the “κ (molar absorptivity)” value in series [2] (at 320 nm) worked out at 10354 L/mol/cm; in series [2] (at 360 nm) it was 23715 L/mol/cm; in series [2] (at 400 nm) it was 2294 L/mol/cm; in series [2] (at λmax), 23870 L/mol/cm. The “A (absorbance)” value in series [2] (at 320 nm, CHCl3, C 0.01 mg/mL) is reported as 0.334; in series [2] (at 360 nm, CHCl3, C 0.01 mg/mL), 0.765; in series [2] (at 400 nm, CHCl3, C 0.01 mg/mL) it was 0.074; in series [2] (at λmax, CHCl3, C 0.01 mg/mL), 0.770. Besides, in series [2], the “λmax (λCHCl3)” value is listed as 358 (λmax) nm.
In the case of `CC(C)CCCC(C)C1CCC2C3CC=C4CC(OC(=O)c5ccc(N=Nc6ccc(OCCCC[n+]7ccc8ccccc8c7)cc6)cc5)CCC4(C)C3CCC12C.[Br-]` (centres unmarked) [iQB], in series [2] (at λmax), the “κ (molar absorptivity)” value was 21176 L/mol/cm. Further, the “A (absorbance)” value in series [2] (at λmax, CHCl3, C 0.01 mg/mL) stood at 0.242. Moreover, the “λmax (λCHCl3)” value in series [2] is reported as 357 (λmax) nm. In addition, in series [3], the “time of UV light irradiation to convert trans into cis form” value amounted to 8 min, the “time of visible light irradiation to reach the photostationary state of trans form” value worked out at 8 min and the “time of natural light irradiation to reach the photostationary state of trans form” value worked out at 3.0 h.

These data come from patent US8835643B2, “Molecules, compositions, and methods for light absorption” (Empire Technology Development LLC, priority 2012, dated 2014).
